# Assay results: patent US20260356834A1, “ANTICONVULSIVE COMPOUNDS AND USES THEREOF” (Jazz Pharmaceuticals Research UK Limite, priority 2023, published 2026)
# Values joined by “and” are separate entries in the source; they are usually repeats but may differ in a detail not shown here. Equal values may be shown once. Marks after values point to notes of the source that are not given here.
# Assays:
# [1] = tested on: C57BL/6J mice; assay: mouse maximal electroshock seizure threshold model (MEST); type: in vivo
# Description: Vehicle=1:2:17 ethanol:Solutol® (Kolliphor® HS 15):saline: 1 mL of ethanol and 2 mL of solutol were warmed to 60 °C and 17 mL of 0.9% saline was added slowly. […]
# Vehicle=0.5% HPMC and 0.1% Tween 80:0.5% HPMC and 0.1% Tween 80 in water.
# [2] = tested on: RjOrl: Swiss mice; assay: mouse 6 Hz (44 mA) model of partial seizures; type: in vivo; conditions: for Mean Forelimb Clonus +/− SEM: score 0-2; for Change from vehicle 2 (forelimb clonus): vs vehicle 2 (1:2:17)
# Description: The 6 Hz (44 mA) model of partial seizures, which detects anticonvulsant activity, follows that described by Brown et al. 1953.
# […] A decrease in forelimb clonus score is indicative of protection from seizure and an anticonvulsive effect.
# When conducted at a 44 mA stimulus intensity in mice, the 6 Hz test can differentiate compounds with potential for the treatment of focal-onset seizures that are often resistant to current anti-epileptic drugs.
# Male RjOrl: Swiss mice (Janvier Labs, 53940 Le Genest-Saint-Isle, France), 5 weeks old, weighing 27-38 g at the beginning of the experiment. Animals were acclimatized to the Test Facility for at least 5 days after delivery and randomly housed in groups of 5 to 8 in macrolon cages on wood litter with free access to food and water.
# The animal house was maintained under artificial lighting (12 hours) between 7:00 and 19:00 in a controlled ambient temperature of 22±2 °C and relative humidity between 30-70%.
# Before transcorneal stimulation, a drop of tetracaine solution (1%) was applied on each eye of the mouse for local anesthesia. Between 1-10 minutes later and at the designated pre-treatment (see below), the mice were administered a rectangular current (44 mA, rectangular pulse: 0.2 ms pulse width, 3 s duration, (6 Hz) via corneal electrodes connected to a constant current shock generator (Ugo Basile: type 7801).
# The results for the number of seizures as reflected by forelimb clonus were recorded immediately after current administration. Forelimb clonus was scored as absent (0=no forelimb clonus), mild (1=clonus with one forelimb) and strong (2=clonus with both forelimbs). The experimenters were blinded to the treatment. […]
# The administration volume was 10 mL/kg.
# Due to the number of animals tested, the experiment was divided in 2 sub-experiments on 2 consecutive days with equivalent numbers of mice per group and per sub-experiment.
# Data were discrete values so considered to be non-normally distributed based on validation data, therefore non-parametric tests were utilized. Quantitative data (scores) with the test substance were analyzed by comparing test compound-treated groups with the 1:2:17 vehicle control using Kruskal-Wallis test with Dunn's multiple comparisons test when the Kruskal-Wallis test was significant. Quantitative data with the reference substance were analyzed using Mann-Whitney U test as compared to saline vehicle.
# [3] = tested on: C57BL/6J mice; assay: mouse maximal electroshock seizure threshold model using minimal sample sizes (mini-MEST)
# Description: An increase in seizure threshold is indicative of an anticonvulsive effect.
# The ability of a test compound to alter the stimulus intensity, expressed as current (mA), required to induce the presence of tonic hind limb extensor convulsions, is assessed in the MEST.
# In the mini-MEST test, a lower n number is used.
# Male C57BL/6J mice were housed in groups of 6. Mice were kept under standard conditions (12 hour light cycle; light intensity of 25-75 lux) and fed a diet of certified rodent CR 14% protein rodent diet (LabDiet® 4CR4). Mice were 8-9 weeks old at the start of the study.
# Naïve mice were acclimatised to the procedure room in their home cages for up to 7 days, with food and water available ad libitum.
# All animals were weighed at the beginning of the study and randomly assigned to treatment groups based on a mean distribution of body weight across groups.
# The first animal within a treatment group was given a shock at the expected or estimated CC50 current. For subsequent animals, the current was lowered or raised depending on the convulsions outcome from the preceding animal in log scale intervals.
# Data generated from each treatment group were used to calculate the CC50±SEM values for the treatment group.
# Vehicle: (5% ethanol, 10% Solutol® (Kolliphor® HS 15), 85% saline). 1 mL of ethanol, 2 mL of Solutol™ were warmed to 60 °C, in 17 mL of 0.9% saline.
# Test compounds: 5-50 mg/kg in a 1:2:17 ethanol:Solutol®:saline formulation (as used for vehicle).
# [4] = 10 mg/kg p.o., 30 min, HPMC vehicle
# [5] = 10 mg/kg p.o., 30 min, vs HPMC vehicle
# [6] = 50 mg/kg p.o., 30 min, HPMC vehicle
# [7] = 10 mg/kg i.p., 15 min post dose
# [8] = 10 mg/kg i.p., 30 min post dose
# [9] = 10 mg/kg i.p., 60 min post dose
# [10] = 30 mg/kg i.p., 30 min post dose
# [11] = 25 mg/kg p.o., 15 min post dose
# [12] = 25 mg/kg p.o., 60 min post dose
# [13] = 50 mg/kg p.o., 30 min post dose
# [14] = 50 mg/kg p.o., 60 min post dose
# [15] = 50 mg/kg p.o., 120 min post dose
# [16] = 50 mg/kg p.o., 240 min post dose
structure (smiles),measurement,setting,value
"CCCc1cc(O)c(-c2c(C)ccn3ccnc23)c(O)c1 [Compound 2, 2-(7-Methylimidazo[1,2-a]pyridin-8-yl)-5-propylbenzene-1,3-diol]",CC50 +/− SEM,"[1]; 1 mg/kg i.p., 15 min, 1:2:17 ethanol:Solutol:saline",26.0 ± 0.4 mA
same,Change from vehicle (CC50),"[1]; 1 mg/kg i.p., 15 min, vs 1:2:17 ethanol:Solutol:saline vehicle",11%^###
same,CC50 +/− SEM,"[1]; 5 mg/kg i.p., 15 min, 1:2:17 ethanol:Solutol:saline",29.4 ± 0.9 mA
same,Change from vehicle (CC50),"[1]; 5 mg/kg i.p., 15 min, vs 1:2:17 ethanol:Solutol:saline vehicle",26%^###
same,CC50 +/− SEM,[1]; [4],27.0 ± 0.7 mA
same,Change from vehicle (CC50),[1]; [5],17%***
same,CC50 +/− SEM,"[1]; 30 mg/kg i.p., 30 min, 1:2:17 ethanol:Solutol:saline",38.2 ± 1.5 mA
same,Change from vehicle (CC50),"[1]; 30 mg/kg i.p., 30 min, vs 1:2:17 ethanol:Solutol:saline vehicle",64%^###
same,CC50 +/− SEM,[1]; [6],38.2 ± 0.5 mA
same,Change from vehicle (CC50),"[1]; 50 mg/kg p.o., 30 min, vs HPMC vehicle",66%***
same,CC50 +/− SEM,"[1]; 60 mg/kg i.p., 30 min, 1:2:17 ethanol:Solutol:saline",59.5 ± 2.6 mA
same,Change from vehicle (CC50),"[1]; 60 mg/kg i.p., 30 min, vs 1:2:17 ethanol:Solutol:saline vehicle",155%^###
same,Mean Forelimb Clonus +/− SEM,"[2]; 10 mg/kg i.p., 30 min",0.7 ± 0.1
same,Change from vehicle 2 (forelimb clonus),"[2]; 10 mg/kg i.p., 30 min",−22%
same,Mean Forelimb Clonus +/− SEM,"[2]; 30 mg/kg i.p., 15 min",0.7 ± 0.1
same,Change from vehicle 2 (forelimb clonus),"[2]; 30 mg/kg i.p., 15 min",−22%
same,Mean Forelimb Clonus +/− SEM,"[2]; 60 mg/kg i.p., 30 min",0.7 ± 0.1
same,Change from vehicle 2 (forelimb clonus),"[2]; 60 mg/kg i.p., 30 min",−22%
same,sedation,[2]; 100 mg/kg i.p.,slight sedation observed
same,Mean Forelimb Clonus +/− SEM,"[2]; 100 mg/kg i.p., 30 min",0.3 ± 0.1
same,Change from vehicle 2 (forelimb clonus),"[2]; 100 mg/kg i.p., 30 min",−67%
same,adverse signs,"[2]; 10, 30 or 60 mg/kg i.p.",no adverse signs were noted
same,CC50 +/− SEM,[3]; [7],67.5 ± 2.6 mA and 65.8 ± 1.9 mA
same,Change from vehicle (CC50),[3]; [7],150% and 145%
same,CC50 +/− SEM,[3]; [8],35.3 ± 1.1 mA
same,Change from vehicle (CC50),[3]; [8],32%
same,CC50 +/− SEM,[3]; [9],56.0 ± 1.6 mA
same,Change from vehicle (CC50),[3]; [9],109%
same,CC50 +/− SEM,[3]; [10],>131.0 mA
same,Change from vehicle (CC50),[3]; [10],414%
"CCCc1cc(O)c(-c2c(C)c(Cl)cn3ccnc23)c(O)c1 [Compound 4, 2-(6-Chloro-7-methylimidazo[1,2-a]pyridin-8-yl)-5-propylbenzene-1,3-diol]",CC50 +/− SEM,"[1]; 5 mg/kg p.o., 15 min, HPMC vehicle",23.5 ± 2.1 mA
same,Change from vehicle (CC50),"[1]; 5 mg/kg p.o., 15 min, vs HPMC vehicle",11%
same,CC50 +/− SEM,[1]; [4],22.5 ± 0.3 mA
same,Change from vehicle (CC50),[1]; [5],14%
same,CC50 +/− SEM,"[1]; 25 mg/kg p.o., 15 min, HPMC vehicle",27.5 ± 1.3 mA
same,Change from vehicle (CC50),"[1]; 25 mg/kg p.o., 15 min, vs HPMC vehicle",32%**
same,CC50 +/− SEM,"[1]; 25 mg/kg p.o., 30 min, HPMC vehicle",60.8 ± 2.9 mA
same,Change from vehicle (CC50),"[1]; 25 mg/kg p.o., 30 min, vs HPMC vehicle",132%***
same,CC50 +/− SEM,[1]; [6],92.5 ± 3.2 mA and 125.0 ± 33.4 mA
same,CC50 +/− SEM,"[1]; 100 mg/kg p.o., 30 min, HPMC vehicle",200.0 ± 3.7 mA
same,Change from vehicle (CC50),"[1]; 100 mg/kg p.o., 30 min, vs HPMC vehicle",860%***
same,Mean Forelimb Clonus +/− SEM,"[2]; 10 mg/kg i.p., 30 min",1.00 ± 0.11
same,Change from vehicle 2 (forelimb clonus),"[2]; 10 mg/kg i.p., 30 min",+54%
same,Mean Forelimb Clonus +/− SEM,"[2]; 30 mg/kg i.p., 15 min",0.30 ± 0.11
same,Change from vehicle 2 (forelimb clonus),"[2]; 30 mg/kg i.p., 15 min",−54%
same,Mean Forelimb Clonus +/− SEM,"[2]; 60 mg/kg i.p., 30 min",0.30 ± 0.11
same,Change from vehicle 2 (forelimb clonus),"[2]; 60 mg/kg i.p., 30 min",−54%
same,Mean Forelimb Clonus +/− SEM,"[2]; 100 mg/kg i.p., 30 min",0.11 ± 0.07
same,Change from vehicle 2 (forelimb clonus),"[2]; 100 mg/kg i.p., 30 min",−83%**
same,sedation,[2]; 60 and 100 mg/kg i.p.,***p < 0.001; relatively low forelimb seizure scores in the 1:2:17 vehicle group may impact data interpretation; slight to moderate sedation observed with Compound 4 at 60 and 100 mg/kg.
same,CC50 +/− SEM,[3]; [11],80.9 ± 3.7 mA
same,Change from vehicle (CC50),[3]; [11],216%
same,CC50 +/− SEM,"[3]; 25 mg/kg p.o., 30 min post dose",92.9 ± 1.1 mA and 53.5 ± 3.4 mA and 106.6 ± 1.1 mA
same,CC50 +/− SEM,[3]; [12],70.5 ± 1.1 mA
same,Change from vehicle (CC50),[3]; [12],176%
same,CC50 +/− SEM,[3]; [10],70.5 ± 1.1 mA
same,Change from vehicle (CC50),[3]; [10],140%
same,CC50 +/− SEM,[3]; [13],80.9 ± 1.1 mA
same,Change from vehicle (CC50),[3]; [13],145%
same,CC50 +/− SEM,[3]; [14],>131.0 mA
same,Change from vehicle (CC50),[3]; [14],>297%
same,CC50 +/− SEM,[3]; [15],61.4 ± 1.1 mA
same,Change from vehicle (CC50),[3]; [15],100%
same,CC50 +/− SEM,[3]; [16],61.4 ± 3.7 mA
same,Change from vehicle (CC50),[3]; [16],100%
